# Data: patent US6355428B1, “Nucleic acid ligand interaction assays” (Genelabs Technologies, Inc., priority 1998, dated 2002)
# Tests used:
# [1] = test system: 5′-CTTTTTTTTT-3′ (SEQ ID NO: 1) F/Q indicator pair; experiment: Fluorescence quenching direct binding assay, A/T rich DNA; conditions: increasing netropsin; tRNA added; room temperature
# Description: (§1) The specific examples described in this section employ fluorescence quenching as the detection system. In these examples, because conditions are adjusted to maintain the oligonucleotides in single-stranded form in the absence of the ligand, the assay starts with the system at a high or maximum level of fluorescence, and fluorescence generally decreases, depending on binding affinity, as the ligand is added.
# (§2) In the Figure legends, RNA oligonucleotides are denoted by an “r” at the beginning of the sequence, and single stranded controls by “ss” at the end of the sequence. These single stranded sequence, are used alone in control experiments, which thus employ only an “F” strand and no complementary quenching strand. Any quenching of fluorescence that is not due to hybridization can thus be acounted for. Maximum quenching expected on complete hybridization of these oligonucleotides is 85-90%; therefore some signal remains after complete hybridization. […]
# (§3) According to the general method described above, increasing amounts of netropsin or actinomycin, respectively, were added to mixtures of selected F/Q indicator oligonucleotide pairs, whose sequences are shown in the legends of FIGS. 1 and 3. […] The Figures show the level of fluorescence observed, relative to a control having no added drug, for each indicator pair (or single strand) as the level of added drug was increased. […]
# [2] = test system: 5′-GCGGTATTT-3′ (SEQ ID NO: 12) F/Q indicator pair; experiment: Fluorescence quenching direct binding assay, mixed DNA; conditions: increasing netropsin; tRNA added; room temperature
# Description: as §1, §2, §3
# [3] = test system: RNA 5′-rCUAGAUCUGA-3′ (SEQ ID NO: 23) double stranded RNA probe; experiment: Fluorescence quenching direct binding assay, RNA; conditions: change in fluorescence similar to single-stranded controls
# Description: as §1
# In the Figure legends, RNA oligonucleotides are denoted by an “r” at the beginning of the sequence, and single stranded controls by “ss” at the end of the sequence. These single stranded sequence, are used alone in control experiments, which thus employ only an “F” strand and no complementary quenching strand. Any quenching of fluorescence that is not due to hybridization can thus be acounted for. Maximum quenching expected on complete hybridization of these oligonucleotides is 85-90%; therefore some signal remains after complete hybridization. The signal is plotted so that it is normalized to the control signal in the absence of ligand.
# Netropsin has been shown in previous studies to bind preferentially to A/T rich regions of DNA. […] Netropsin also binds well to the sequence 5′-GCGGTATTT-3′ (SEQ ID NO: 12), which is a useful “indicator” probe (as discussed below), having both C/G and A/T rich sequences. […]
# [4] = test system: GCGGTATTT (mixed) DNA duplex (SEQ ID NO: 12); experiment: SPA direct binding assay, mixed sequence indicator duplex
# From the text: (§4) This technology can be applied to studies of ligand binding as disclosed herein. Example 13, below, describes the use of the assay in a high throughput screening method, using the SPA detection system. In this example, the first oligonucleotide is labeled with biotin, and is then tightly bound to streptavidin-coated SPA beads via the strong biotin/streptavidin interaction. These beads are impregnated with scintillant. The second oligonucleotide is labeled with a weak β-emitter, such as ^3H or ^33P. The radioactive second oligonucleotide is mixed with a solution of the beads under conditions at which the first and second oligonucleotides exist primarily as single strands, as described above. The signal will thus be low, as the oligonucleotides are non-hybridized. When ligand is added, the duplex form is stabilized, and the increased proximity of the radioactive isotope (e.g., ^3H, ^33P) in the second oligonucleotide causes the bead to which the first oligonucleotide is bound to scintillate. A signal thus indicates the presence of an effective binding ligand molecule; test sequences giving higher signals indicate the relative preference for different sequences.
# (§5) The data in Table II compare raw signal counts from SPA assays using three different oligonucleotides and three concentrations (0, 100, and 500 nM) of the DNA binding drug distamycin. The oligonucleotides used were G/C-rich (CCGCGCC; SEQ ID NO: 6), A/T-rich (CTTTATTATTTT; SEQ ID NO: 2), or mixed sequence (GCGGTATTT; SEQ ID NO: 12) DNA duplexes. One strand of the duplex was synthesized with a 5′-biotin label, the other strand was labeled with ^33P, as described in Example 13.
# Indicator oligonucleotides as shown in Table 1 were used in this assay, as shown in Table II and FIGS. 4A-E. One strand of each duplex was labeled with biotin at the 5′-end, and the complementary strand was 3′-labeled with ^33P. […] In the absence of ligand, and under these conditions, the oligonucleotides exist in single-stranded conformation. As a result, the oligonucleotide containing the radioactive label is not in close proximity to the SPA bead, and the light given off by the beads is low, i.e., at background. As a duplex-stabilizing ligand is added, the radioactive ^33P is brought into close proximity to the SPA bead, and the light emitted from the SPA bead increases. Accordingly, each of five known DNA-binding compounds was added in increasing concentrations, and the effect on scintillation count was observed, giving the results shown in FIGS. 4A-E.
# [5] = test system: CTTTATTATTTT (AT-rich) DNA duplex (SEQ ID NO: 2); experiment: SPA direct binding assay, A/T-rich indicator duplex
# From the text: as §4, §5
# Indicator oligonucleotides as shown in Table 1 were used in this assay, as shown in Table II and FIGS. 4A-E. One strand of each duplex was labeled with biotin at the 5′-end, and the complementary strand was 3′-labeled with ^33P. The two complementary strands were incubated with streptavidin-coated SPA beads (Amersham, Arlington Heights, Ill.) at room temperature in a buffer containing 20 mM HEPES, pH 7.5, 0.1 mM EDTA, and 20 mM NaCl. In the absence of ligand, and under these conditions, the oligonucleotides exist in single-stranded conformation. As a result, the oligonucleotide containing the radioactive label is not in close proximity to the SPA bead, and the light given off by the beads is low, i.e., at background. As a duplex-stabilizing ligand is added, the radioactive ^33P is brought into close proximity to the SPA bead, and the light emitted from the SPA bead increases. Accordingly, each of five known DNA-binding compounds was added in increasing concentrations, and the effect on scintillation count was observed, giving the results shown in FIGS. 4A-E.
"CPM ([4]; 100 nM Distamycin, 10 mM Na+) [CPM]","CPM ([4]; 100 nM Distamycin, 50 mM Na+) [CPM]","CPM ([4]; 500 nM Distamycin, 10 mM Na+) [CPM]","CPM ([4]; 500 nM Distamycin, 50 mM Na+) [CPM]","CPM ([5]; 100 nM Distamycin, 10 mM Na+) [CPM]","CPM ([5]; 100 nM Distamycin, 50 mM Na+) [CPM]","CPM ([5]; 500 nM Distamycin, 10 mM Na+) [CPM]","CPM ([5]; 500 nM Distamycin, 50 mM Na+) [CPM]",SMILES,"binding (decrease in fluorescence, FIG. 3A) [1]","binding (decrease in fluorescence, FIG. 3A) [2]","binding (decrease in fluorescence, FIG. 3A) [3]"
–,–,–,–,–,–,–,–,"Cn1cc(NC(=O)c2cc(NC(=O)CN=C(N)N)cn2C)cc1C(=O)NCCC(=N)N [Netropsin, netropsin]",strongly prefers,binds well,does not bind well
597,868,1951,2234,2218,2448,3332,3352,"Cn1cc(NC(=O)c2cc(NC(=O)c3cc(NC=O)cn3C)cn2C)cc1C(=O)NCCC(=N)N [Distamycin, distamycin]",–,–,–
